46 compounds from ChEMBL document CHEMBL3046375, “Antifungal activity of simple compounds with maleic anhydride or dimethylmaleimide structure against Botrytis cinerea” (J Pestic Sci, 2012) can be followed below.

Converted amounts (≈) assume the structure as drawn. Bounds are passed on as bounds.

One test concerns Botrytis cinerea. As to the kind of experiment: Antifungal actiivty against Botryotinia fuckeliana. In kind it is functional.
Details: not given
Usually MIC stands for the least concentration at which growth counts as inhibited. Take `CCCCC1CC2=C(CC(C(O)CCCC)C3=C1C(=O)OC3=O)C(=O)OC2=O` (stereo unspecified): the MIC was 0.78 µg/mL (≈ 2 µM).

In another test the test system is Botrytis cinerea. Description: Antifungal actiivty against Botryotinia fuckeliana ACCC 30387 assessed as inhibition of radial growth after 3 days. In kind it is functional. The settings on record: ACCC 30387, 72 h.
Turning to `CCCCCC1=C(C)C(=O)OC1=O`, the MIC was 5 µg/mL (≈ 27.4 µM).

As to `O=C(O)c1ccc2c(c1)C(=O)OC2=O`, the MIC was above 1000 µg/mL.

Take `O=C1OC(=O)C(Cl)=C1Cl`: the MIC amounted to 100 µg/mL (≈ 599 µM).

Consider `CC1=C(C)C(=O)N(Cc2ccccc2)C1=O`, for which the MIC was determined as 5 µg/mL (≈ 23.2 µM).

Consider `CCCCN1C(=O)C(C)=C(C)C1=O`, for which the MIC stood at 5 µg/mL (≈ 27.6 µM).

On to `CC1=C(CBr)C(=O)OC1=O`, for which the MIC came to 10 µg/mL (≈ 48.8 µM).

In the case of `CC1=C(CCC(=O)O)C(=O)OC1=O`, the MIC amounted to 80 µg/mL (≈ 434 µM).

In the case of `CCCCCCCCCCC1=C(C)C(=O)OC1=O`, the MIC was found to be 3 µg/mL (≈ 11.9 µM).

Turning to `CCCC1=C(C)C(=O)OC1=O`, the MIC worked out at 25 µg/mL (≈ 162 µM).

As to `CC1=C(C)C(=O)OC1=O`, the MIC amounted to 3 µg/mL (≈ 23.8 µM).

For `CC1=C(CO)C(=O)OC1=O`, the MIC is above 1000 µg/mL.

Turning to `CC1=C(C)C(=O)N(c2ccc(Cl)cc2)C1=O`, the MIC worked out at 10 µg/mL (≈ 42.4 µM).

In the case of `CCCCCCN1C(=O)C(C)=C(C)C1=O`, the MIC stood at 5 µg/mL (≈ 23.9 µM).

As to `O=C1OC(=O)c2c(F)c(F)c(F)c(F)c21`, the MIC is 500 µg/mL (≈ 2270 µM).

`CC1=C(COC(=O)c2ccccc2)C(=O)OC1=O`: the MIC was determined as 15 µg/mL (≈ 60.9 µM).

For the compound `CC1=C(C)C(=O)N(C2CCCCC2)C1=O`, the MIC worked out at 10 µg/mL (≈ 48.2 µM).

On to `CC1=C(C)C(=O)N(c2nc3ccccc3[nH]2)C1=O`, for which the MIC was found to be 10 µg/mL (≈ 41.5 µM).

Regarding `CCCCCCCCCCCCN1C(=O)C(C)=C(C)C1=O`, the MIC was found to be 50 µg/mL (≈ 170 µM).

Consider `O=C1OC(=O)c2c(Cl)ccc(Cl)c21`, for which the MIC is above 1000 µg/mL.

Turning to `CCOC(=O)C(CC1=C(C)C(=O)OC1=O)C(=O)OCC`, the MIC is 8 µg/mL (≈ 28.1 µM).

`CC1=C(C)C(=O)N(c2ccc(F)c(F)c2F)C1=O`: the MIC stood at 1 µg/mL (≈ 3.92 µM).

Regarding `CC1=C(C)C(=O)N(c2ccc(C)cc2)C1=O`, the MIC is 5 µg/mL (≈ 23.2 µM).

In the case of `CC1=C(CNc2cc(Cl)cc(Cl)c2)C(=O)OC1=O`, the MIC worked out at 50 µg/mL (≈ 175 µM).

Turning to `O=C1C=CC(=O)O1` [MALEIC ANHYDRIDE], the MIC amounted to 250 µg/mL (≈ 2550 µM).

Consider `CC1=C(C)C(=O)N(c2cc(Cl)cc(Cl)c2)C1=O`, for which the MIC came to 0.1 µg/mL (≈ 0.37 µM).

Turning to `Cc1ccc2c(c1)C(=O)OC2=O`, the MIC is above 1000 µg/mL.

Regarding `Nc1c(Cl)cc([N+](=O)[O-])cc1Cl` [ALLISAN], the MIC came to 0.1 µg/mL (≈ 0.483 µM).

With `CC(=O)OCC1=C(C)C(=O)OC1=O`, the MIC was 20 µg/mL (≈ 109 µM).

As to `O=C1OC(=O)c2c(F)cccc21`, the MIC is 500 µg/mL (≈ 3010 µM).

As to `CC1=C(C)C(=O)N(CC(C)C)C1=O`, the MIC was found to be 50 µg/mL (≈ 276 µM).

In the case of `O=C1C=C(Br)C(=O)O1`, the MIC was determined as 1000 µg/mL (≈ 5650 µM).

For the compound `O=C1OC(=O)c2cc(Cl)c(Cl)cc21`, the MIC is 500 µg/mL (≈ 2300 µM).

`O=C1OC(=O)c2c1ccc(Cl)c2Cl`: the MIC was above 1000 µg/mL.

With `O=C1OC(=O)C(CBr)=C1CBr`, the MIC is 125 µg/mL (≈ 440 µM).

For `O=C1OC(=O)c2c(F)ccc(F)c21`, the MIC was 150 µg/mL (≈ 815 µM).

As for `CC1=C(C)C(=O)N(CCc2ccccc2)C1=O`, the MIC amounted to 75 µg/mL (≈ 327 µM).

In the case of `CCCCCCC1=C(C)C(=O)OC1=O`, the MIC came to 4 µg/mL (≈ 20.4 µM).

With `O=C1C=C(c2ccccc2)C(=O)O1`, the MIC worked out at 150 µg/mL (≈ 861 µM).

Consider `CC1=C(C)C(=O)N(c2ccccc2)C1=O`, for which the MIC was found to be 1 µg/mL (≈ 4.97 µM).

Regarding `O=C1OC(=O)C(c2ccccc2)=C1c1ccccc1`, the MIC is 20 µg/mL (≈ 79.9 µM).

Turning to `CC1=C(C)C(=O)N(c2cccc([N+](=O)[O-])c2C)C1=O`, the MIC came to 10 µg/mL (≈ 38.4 µM).

Consider `CC1=C(C)C(=O)N(CCCc2ccccc2)C1=O`, for which the MIC came to 10 µg/mL (≈ 41.1 µM).

Turning to `CCCCCN1C(=O)C(C)=C(C)C1=O`, the MIC amounted to 5 µg/mL (≈ 25.6 µM).

For the compound `CCCCCCCCN1C(=O)C(C)=C(C)C1=O`, the MIC amounted to 50 µg/mL (≈ 211 µM).

Turning to `O=C1OC(=O)c2ccccc21` [PHTHALIC ANHYDRIDE], the MIC is above 1000 µg/mL.
